Measured values published in patent publication US11542255B2, “Sulfonylureas and sulfonylthioureas as NLRP3 inhibitors” (Inflazome Limited, priority 2017, dated 2023).
Counter-ions that a name gives are not always drawn.

Legend:
NLRP3 [1] = biological target: T1, NLRP3 (Homo sapiens, UniProt Q96P20); assay: THP-1 cells pyroptosis assay (LPS + nigericin, resazurin readout); assay type: cell-based; design: Seed THP-1 cells (25,000 cells/well) containing 1.0 μg/ml LPS in 40 μl of RPMI medium; host or cells: THP-1 cells; details: NLRP3 inhibitory activity, 1.0 μg/ml LPS, 5 μM nigericin
T1 sequence (Q96P20 whole entry): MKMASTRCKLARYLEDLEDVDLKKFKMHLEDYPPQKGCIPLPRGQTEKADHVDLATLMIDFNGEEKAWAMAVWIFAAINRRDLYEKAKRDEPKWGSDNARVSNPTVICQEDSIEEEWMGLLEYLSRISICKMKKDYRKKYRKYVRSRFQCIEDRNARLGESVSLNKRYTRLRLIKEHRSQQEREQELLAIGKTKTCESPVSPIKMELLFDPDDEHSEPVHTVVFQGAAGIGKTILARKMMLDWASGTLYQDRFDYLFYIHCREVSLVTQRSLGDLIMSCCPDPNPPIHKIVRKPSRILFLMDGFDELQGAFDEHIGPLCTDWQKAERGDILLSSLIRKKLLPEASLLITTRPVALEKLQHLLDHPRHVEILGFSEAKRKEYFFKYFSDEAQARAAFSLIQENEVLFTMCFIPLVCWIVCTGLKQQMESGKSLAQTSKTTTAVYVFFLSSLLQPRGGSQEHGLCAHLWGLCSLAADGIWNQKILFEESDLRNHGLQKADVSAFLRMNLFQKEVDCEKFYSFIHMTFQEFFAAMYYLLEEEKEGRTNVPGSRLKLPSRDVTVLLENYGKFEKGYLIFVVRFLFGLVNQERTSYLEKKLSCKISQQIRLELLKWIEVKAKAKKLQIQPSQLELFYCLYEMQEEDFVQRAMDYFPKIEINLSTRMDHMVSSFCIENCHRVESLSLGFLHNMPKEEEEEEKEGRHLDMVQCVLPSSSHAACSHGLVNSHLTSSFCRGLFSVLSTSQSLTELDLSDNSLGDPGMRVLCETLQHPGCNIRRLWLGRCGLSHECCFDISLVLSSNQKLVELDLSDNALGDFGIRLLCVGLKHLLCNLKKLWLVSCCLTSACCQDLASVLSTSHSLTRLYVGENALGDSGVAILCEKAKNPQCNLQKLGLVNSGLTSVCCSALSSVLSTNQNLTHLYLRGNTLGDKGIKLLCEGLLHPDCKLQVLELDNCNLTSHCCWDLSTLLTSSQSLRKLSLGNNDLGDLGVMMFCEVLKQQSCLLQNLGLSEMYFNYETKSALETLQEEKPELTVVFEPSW
Procedure: THP-1 cells (ATCC #TIB-202) were grown in RPMI containing L-glutamine (Gibco #11835) supplemented with 1 mM sodium pyruvate (Sigma #S8636) and penicillin (100 units/ml)/streptomycin (0.1 mg/ml) (Sigma #P4333) in 10% Fetal Bovine Serum (FBS) (Sigma #F0804). The cells were routinely passaged and grown to confluency (˜10^6 cells/ml). On the day of the experiment, THP-1 cells were harvested and resuspended into RPMI medium (without FBS). The cells were then counted and viability (>90%) checked by Trypan blue (Sigma #T8154). Appropriate dilutions were made to give a concentration of 625,000 cells/ml. To this diluted cell solution was added LPS (Sigma #L4524) to give a […] Final Assay Concentration (FAC). 40 μl of the final preparation was aliquoted into each well of a 96-well plate. The plate thus prepared was used for compound screening.
The following method step-by-step assay was followed for compound screening. • 1. Seed THP-1 cells (25,000 cells/well) containing 1.0 μg/ml LPS in 40 μl of RPMI medium (without FBS) in 96-well, black walled, clear bottom cell culture plates coated with poly-D-lysine (VWR #734-0317) • 2. Add 5 μl compound (8 points half-log dilution, with 10 μM top dose) or vehicle (DMSO 0.1% FAC) to the appropriate wells • 3. Incubate for 3 hrs at 37° C. in 5% CO2 • 4. Add 5 μl nigericin (Sigma #N7143) (FAC 5 μM) to all wells • 5. Incubate for 1 hr at 37° C. and 5% CO2 • 6. At the end of the incubation period, spin plates at 300×g for 3 mins and remove supernatant • 7. Then add 50 μl of resazurin (Sigma #R7017) (FAC 100 μM resazurin in RPMI medium without FBS) and incubate plates for a further 1-2 hrs at 37° C. and 5% CO2 • 8. Plates were read in an Envision reader at Ex 560 nm and Em 590 nm • 9. IC50 data is fitted to a non-linear regression equation (log inhibitor vs response-variable slope 4-parameters)

NLRP3 [2] = biological target: T1, NLRP3; assay: Human whole blood IL1β release assay (LPS + nigericin, AlphaLisa IL-1β); assay type: cell-based; design: Human whole blood in Li-heparin tubes was obtained from healthy donors from a volunteer donor panel; from tissue; host or cells: human whole blood from healthy donors; details: NLRP3 inhibitory activity, 1 μg/ml LPS, 10 μM nigericin, IL-1β release, read-out: HWB IC50
Procedure: For systemic delivery, the ability to inhibit NLRP3 when the compounds are present within the bloodstream is of great importance. For this reason, the NLRP3 inhibitory activity of a number of compounds in human whole blood was investigated in accordance with the following protocol.
Human whole blood in Li-heparin tubes was obtained from healthy donors from a volunteer donor panel. • 1. Plate out 80 μl of whole blood containing 1 μg/ml of LPS in 96-well, clear bottom cell culture plate (Corning #3585) • 2. Add 10 μl compound (8 points half-log dilution with 10 μM top dose) or vehicle (DMSO 0.1% FAC) to the appropriate wells • 3. Incubate for 3 hrs at 37° C., 5% CO2 • 4. Add 10 μl Nigericin (Sigma #N7143) (10 μM FAC) to all wells • 5. Incubate for 1 hr at 37° C., 5% CO2 • 6. At the end of the incubation period, spin plates at 300×g for 5 mins to pellet cells and remove 20 μl of supernatant and add to 96-well v-bottom plates for IL-1β analysis (note: these plates containing the supernatants can be stored at −80° C. to be analysed at a later date) • 7. IL-1β was measured according to the manufacturer protocol (Perkin Elmer-AlphaLisa IL-1β Kit AL220F-5000) • 8. IC50 data is fitted to a non-linear regression equation (log inhibitor vs response-variable slope 4-parameters)

An IC50 (NLRP3 [1]) of 160 to 640 nM and an IC50 (NLRP3 [2]) of 1600 to 3200 nM were found for CN1CCn2nc(S(=O)(=O)NC(=O)Nc3c4c(cc5c3CCC5)CCC4)cc2C1 [Example 5, N-((1,2,3,5,6,7-Hexahydro-s-indacen-4-yl)carbamoyl)-5-methyl-4,5,6,7-tetrahydropyrazolo[1,5-a]pyrazine-2-sulfonamide] in this work.

An IC50 (NLRP3 [1]) of 160 to 640 nM and an IC50 (NLRP3 [2]) of 800 to 1600 nM were found for CC(C)c1cc(S(=O)(=O)NC(=O)Nc2c3c(cc4c2CCC4)CCC3)nn1CCN(C)C [Example 6, 1-(2-(Dimethylamino)ethyl)-N-((1,2,3,5,6,7-hexahydro-s-indacen-4-yl)carbamoyl)-5-isopropyl-1H-pyrazole-3-sulfonamide] in this work.

An IC50 (NLRP3 [1]) of less than 40 nM and an IC50 (NLRP3 [2]) of less than 400 nM were found for CCn1nc(S(=O)(=O)NC(=O)Nc2c(-c3ccnc(OC)c3)ccc3c2CCC3)cc1CN(C)C [Example 17, 5-((Dimethylamino)methyl)-1-ethyl-N-((5-(2-methoxypyridin-4-yl)-2,3-dihydro-1H-inden-4-yl)carbamoyl)-1H-pyrazole-3-sulfonamide] in this work.

An IC50 (NLRP3 [1]) of less than 40 nM and an IC50 (NLRP3 [2]) of less than 400 nM were found for CCn1nc(S(=O)(=O)NC(=O)Nc2c(-c3cccnc3)cc(F)c3c2CCC3)cc1CN(C)C [Example 20, 5-((Dimethylamino)methyl)-1-ethyl-N-((7-fluoro-5-(pyridin-3-yl)-2,3-dihydro-1H-inden-4-yl)carbamoyl)-1H-pyrazole-3-sulfonamide] in this work.

An IC50 (NLRP3 [1]) of less than 40 nM and an IC50 (NLRP3 [2]) of less than 400 nM were found for CCn1nc(S(=O)(=O)NC(=O)Nc2c(-c3ccnc(OC)c3)cc(F)c3c2CCC3)cc1CN(C)C [Example 21, 5-((Dimethylamino)methyl)-1-ethyl-N-((7-fluoro-5-(2-methoxypyridin-4-yl)-2,3-dihydro-1H-inden-4-yl)carbamoyl)-1H-pyrazole-3-sulfonamide] in this work.

An IC50 (NLRP3 [1]) of less than 40 nM and an IC50 (NLRP3 [2]) of 400 to 800 nM were found for CC(c1cc(S(=O)(=O)NC(=O)Nc2c3c(cc4c2CCC4)CCC3)nn1C1CC1)N(C)C (stereo not drawn) [Example 22, 1-Cyclopropyl-5-(1-(dimethylamino)ethyl)-N-((1,2,3,5,6,7-hexahydro-s-indacen-4-yl)carbamoyl)-1H-pyrazole-3-sulfonamide] in this work.

An IC50 (NLRP3 [1]) of less than 40 nM and an IC50 (NLRP3 [2]) of less than 400 nM were found for CCC(c1cc(S(=O)(=O)NC(=O)Nc2c3c(cc4c2CCC4)CCC3)nn1C1CC1)N1CCC1 (stereo not drawn) [Example 23, 5-(1-(Azetidin-1-yl)propyl)-1-cyclopropyl-N-((1,2,3,5,6,7-hexahydro-s-indacen-4-yl)carbamoyl)-1H-pyrazole-3-sulfonamide] in this work.

An IC50 (NLRP3 [1]) of 40 to 160 nM and an IC50 (NLRP3 [2]) of 400 to 800 nM were found for CC1CN(C(C)c2cc(S(=O)(=O)NC(=O)Nc3c4c(cc5c3CCC5)CCC4)nn2C)C1 (stereo not drawn) [Example 29, N-((1,2,3,5,6,7-Hexahydro-s-indacen-4-yl)carbamoyl)-1-methyl-5-(1-(3-methylazetidin-1-yl)ethyl)-1H-pyrazole-3-sulfonamide] in this work.

An IC50 (NLRP3 [1]) of 40 to 160 nM and an IC50 (NLRP3 [2]) of 400 to 800 nM were found for CN(C)Cc1cc(S(=O)(=O)NC(=O)Nc2c3c(cc4c2CCC4)CCC3)nn1CC(C)(C)C [Example 31, 5-((Dimethylamino)methyl)-N-((1,2,3,5,6,7-hexahydro-s-indacen-4-yl)carbamoyl)-1-neopentyl-1H-pyrazole-3-sulfonamide] in this work.

An IC50 (NLRP3 [1]) of 40 to 160 nM and an IC50 (NLRP3 [2]) of 400 to 800 nM were found for CC(C)n1nc(S(=O)(=O)NC(=O)Nc2c3c(cc4c2CCC4)CCC3)cc1C1(N(C)C)CC1 [Example 32, 5-(1-(Dimethylamino)cyclopropyl)-N-((1,2,3,5,6,7-hexahydro-s-indacen-4-yl)carbamoyl)-1-isopropyl-1H-pyrazole-3-sulfonamide] in this work.

An IC50 (NLRP3 [1]) of 160 to 640 nM and an IC50 (NLRP3 [2]) of 400 to 800 nM were found for CC(C)n1nc(S(=O)(=O)NC(=O)Nc2c3c(cc4c2CCC4)CCC3)cc1CCN(C)C [Example 33, 5-(2-(Dimethylamino)ethyl)-N-((1,2,3,5,6,7-hexahydro-s-indacen-4-yl)carbamoyl)-1-isopropyl-1H-pyrazole-3-sulfonamide, Sodium Salt] in this work.

An IC50 (NLRP3 [1]) of 40 to 160 nM and an IC50 (NLRP3 [2]) of 400 to 800 nM were found for CN(C)C(C)(C)c1cc(S(=O)(=O)NC(=O)Nc2c3c(cc4c2CCC4)CCC3)nn1C [Example 34, 5-(2-(Dimethylamino)propan-2-yl)-N-((1,2,3,5,6,7-hexahydro-s-indacen-4-yl)carbamoyl)-1-methyl-1H-pyrazole-3-sulfonamide] in this work.

An IC50 (NLRP3 [1]) of 40 to 160 nM and an IC50 (NLRP3 [2]) of less than 400 nM were found for CCn1nc(S(=O)(=O)NC(=O)Nc2c(-c3ccnc(C#N)c3)cc(F)cc2C(C)C)cc1CN(C)C [Example 35, N-((2-(2-Cyanopyridin-4-yl)-4-fluoro-6-isopropylphenyl)carbamoyl)-5-((dimethylamino)methyl)-1-ethyl-1H-pyrazole-3-sulfonamide] in this work.

An IC50 (NLRP3 [1]) of 40 to 160 nM and an IC50 (NLRP3 [2]) of less than 400 nM were found for CC(C)c1cc(F)cc(-c2ccnc(C#N)c2)c1NC(=O)NS(=O)(=O)c1cc(CN(C)C)n(C)n1 [Example 36, N-((2-(2-Cyanopyridin-4-yl)-4-fluoro-6-isopropylphenyl)carbamoyl)-5-((dimethylamino)methyl)-1-methyl-1H-pyrazole-3-sulfonamide] in this work.

An IC50 (NLRP3 [1]) of less than 40 nM and an IC50 (NLRP3 [2]) of 3200 to 10000 nM were found for CN(C)Cc1cc(S(=O)(=O)NC(=O)Nc2c3c(cc4c2CCC4)CCC3)nn1C(C)(C)C [Example 37, 1-(tert-Butyl)-5-((dimethylamino)methyl)-N-((1,2,3,5,6,7-hexahydro-s-indacen-4-yl)carbamoyl)-1H-pyrazole-3-sulfonamide] in this work.

An IC50 (NLRP3 [1]) of 40 to 160 nM and an IC50 (NLRP3 [2]) of 1600 to 3200 nM were found for CC(C)(C)n1nc(S(=O)(=O)NC(=O)Nc2c3c(cc4c2CCC4)CCC3)cc1CN1CCC1 [Example 38, 5-(Azetidin-1-ylmethyl)-1-(tert-butyl)-N-((1,2,3,5,6,7-hexahydro-s-indacen-4-yl)carbamoyl)-1H-pyrazole-3-sulfonamide] in this work.

An IC50 (NLRP3 [1]) of 640 to 2560 nM and an IC50 (NLRP3 [2]) of 1600 to 3200 nM were found for CC(C)c1cc(F)cc(-c2ccccc2)c1NC(=O)NS(=O)(=O)c1cc(CN(C)C)n(C(C)C)n1 [Example 39, 5-((Dimethylamino)methyl)-N-((5-fluoro-3-isopropyl-[1,1′-biphenyl]-2-yl)carbamoyl)-1-isopropyl-1-H-pyrazole-3-sulfonamide] in this work.

An IC50 (NLRP3 [1]) of 160 to 640 nM and an IC50 (NLRP3 [2]) of 400 to 800 nM were found for Cc1cc(-c2cc(F)cc(C(C)C)c2NC(=O)NS(=O)(=O)c2cc(CN(C)C)n(C)n2)n(C)n1 [Example 40, N-((2-(1,3-Dimethyl-1H-pyrazol-5-yl)-4-fluoro-6-isopropylphenyl)carbamoyl)-5-((dimethylamino)methyl)-1-methyl-1H-pyrazole-3-sulfonamide] in this work.

An IC50 (NLRP3 [1]) of 40 to 160 nM and an IC50 (NLRP3 [2]) of less than 400 nM were found for CC(C)c1cc(F)cc(-c2cccnc2)c1NC(=O)NS(=O)(=O)c1cc(CN(C)C)n(C)n1 [Example 41, 5-((Dimethylamino)methyl)-N-((4-fluoro-2-isopropyl-6-(pyridin-3-yl)phenyl)carbamoyl)-1-methyl-1H-pyrazole-3-sulfonamide] in this work.

An IC50 (NLRP3 [1]) of 160 to 640 nM and an IC50 (NLRP3 [2]) of 800 to 1600 nM were found for CC(C)c1cc(F)cc(-c2cccc(C#N)c2)c1NC(=O)NS(=O)(=O)c1cc(CN(C)C)n(C(C)C)n1 [Example 45, N-((3′-Cyano-5-fluoro-3-isopropyl-[1,1′-biphenyl]-2-yl)carbamoyl)-5-((dimethylamino)methyl)-1-isopropyl-1H-pyrazole-3-sulfonamide] in this work.

An IC50 (NLRP3 [1]) of 40 to 160 nM and an IC50 (NLRP3 [2]) of less than 400 nM were found for CC(C)c1cc(F)cc(-c2cccc(C#N)c2)c1NC(=O)NS(=O)(=O)c1cc(CN(C)C)n(C)n1 [Example 46, N-((3′-Cyano-5-fluoro-3-isopropyl-[1,1′-biphenyl]-2-yl)carbamoyl)-5-((dimethylamino)methyl)-1-methyl-1H-pyrazole-3-sulfonamide] in this work.
